Results published in paper PMC11784839, “Monoaminergic neurotransmitters are bimodal effectors of tau aggregation” (Science Advances, 2025).
*1 amine or outer side, *2 acyl side, *3 side chain or, on linkers, in order; H or OH if unused. Where a SMILES comes first, the peptide text is derived from it. Bridges are numbered along the chain shown (N, C = ends). [ ]: non-standard residue; d: D form. hTyr(3S-OH,4S-OH,3'-OSO3H) = N[C@H](C(=O)O)[C@H](O)[C@@H](O)c1ccc(O)c(OS(=O)(=O)O)c1; Orn(4R-OH,5R-OH) = O=C([C@H](C[C@@H](O)[C@@H](O)N[*:3])N[*:1])[*:2]; Pro(3S-OH,4S-Me) = C[C@H]1CN[C@H](C(=O)O)[C@H]1O; Gln(3R-OH) = NC(=O)C[C@@H](O)[C@H](N)C(=O)O; Hyp = O=C(O)[C@@H]1C[C@@H](O)CN1

Molecular target: tau (Homo sapiens, UniProt P10636)
Experiment: MCE Phenols Library screening, tau biosensor cell seeding assay (AvZ)
Assay type: cell-based
Settings: for Z repl 1 / Z Repl 2: Z score; for Z repl 1 / raw data 1: replicate 1; for Z Repl 2 / raw data 2: replicate 2; for AvZ (average z score of seeding, SDs from the mean level of seeding): 10 μM phenol in cell cultures, AD brain homogenate preincubated 16 hours, two biological replicates, positive = catalyzes seeding, negative = inhibits
[1] = average Z score of the two replicates, tau seeding
[2] = average puncta of the two replicates
[3] = average Z score of the two replicates, tau biosensor seeding, MCE Phenols Library screen
[4] = average Z score of the two replicates, MCE Phenols Library screen
[5] = average Z score of two replicates, Phenols Library screen

Sequence of tau (P10636 623-695 limits assumed): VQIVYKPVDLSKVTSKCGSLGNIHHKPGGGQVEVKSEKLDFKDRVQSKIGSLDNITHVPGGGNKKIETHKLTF

Z repl 1	Z Repl 2	av Z [1]	av puncta (average of raw data 1 and 2)	raw data 1 (puncta)	raw data 2 (puncta)	av puncta [2]	av Z [3]	av Z [4]	raw data 1 (raw puncta)	raw data 2 (raw puncta)	av Z [5]	Compound	AvZ (average z score of seeding, SDs from the mean level of seeding)
0.578	0.204	0.391	24116.9	33285.2	14948.5	–	–	–	–	–	–	C#C[C@]1(O)CC[C@H]2[C@@H]3CCc4cc(O)ccc4[C@H]3CC[C@@]21C [Ethynyl Estradiol]	–
0.583	0.288	0.436	24597.1	33348.4	15845.8	–	–	–	–	–	–	COc1ccc(-c2cc(=O)c3c(O)c(OC)c(O)cc3o2)cc1OC [Eupatilin]	–
1.095	0.887	–	30866.7	39497.8	22235.7	–	0.991	–	–	–	–	C[C@@H](O)[C@@H]1NC(=O)[C@@H](N)C[C@@H](O)[C@@H](O)NC(=O)[C@@H]2[C@@H](O)[C@@H](C)CN2C(=O)[C@H]([C@H](O)CC(N)=O)NC(=O)[C@H]([C@H](O)[C@@H](O)c2ccc(O)c(OS(=O)(=O)O)c2)NC(=O)[C@@H]2C[C@@H](O)CN2C1=O [FR179642] (H-[Orn(4R-OH,5R-OH)]T[Hyp][hTyr(3S-OH,4S-OH,3'-OSO3H)][Gln(3R-OH)][Pro(3S-OH,4S-Me)]; lactam 1-C)	–
-0.382	-0.766	–	–	21763	4584.63	13173.8	–	-0.574	–	–	–	Cc1c(O)c(C)c2c(c1O)C(=O)C[C@@H](c1ccc(O)cc1)O2 [Farrerol]	–
0.356	0.717	0.537	25523.7	30618.6	20428.7	–	–	–	–	–	–	CCc1c(Cl)c(O)c(Cl)c(O)c1C(=O)O[C@H]1[C@H](O)[C@H](OC)[C@H](OC/C2=C\C=C\C[C@H](O)/C(C)=C/[C@H](CC)[C@@H](O[C@@H]3OC(C)(C)[C@@H](OC(=O)C(C)C)[C@H](O)[C@@H]3O)/C(C)=C/C(C)=C/C[C@@H]([C@@H](C)O)OC2=O)O[C@@H]1C [Fidaxomicin]	–
-1.392	-0.758	–	7157.01	9642.85	4671.16	–	–	-1.075	–	–	–	O=c1c(O)c(-c2ccc(O)c(O)c2)oc2cc(O)ccc12 [Fisetin]	–
-0.895	-0.498	–	–	15599.3	7451.23	11525.3	–	-0.697	–	–	–	O=C1C[C@@H](c2ccc(O)c(O)c2)Oc2c1ccc(O[C@@H]1O[C@H](CO)[C@@H](O)[C@H](O)[C@H]1O)c2O [Flavanomarein]	–
-0.296	-0.062	–	17449.7	22793.1	12106.3	–	–	–	–	–	-0.179	COc1cc(O)c(C(=O)/C=C/c2ccccc2)c(OC)c1 [Flavokawain B]	–
-0.666	-0.177	–	–	–	–	14614.7	–	-0.422	18356	10873.4	–	COc1cc(O)c(C(=O)/C=C/c2ccc(O)cc2)c(OC)c1 [Flavokawain C]	–
0.23	-0.492	–	18310.1	29105.9	7514.37	–	–	–	–	–	-0.131	C[C@@H]1O[C@@H](OC[C@H]2O[C@@H](OCCc3ccc(O)c(O)c3)[C@H](O)[C@@H](O)[C@@H]2OC(=O)/C=C/c2ccc(O)c(O)c2)[C@H](O)[C@H](O)[C@H]1O [Forsythiaside A]	–
-1.102	-0.666	–	9388.55	13120.4	5656.67	–	–	-0.884	–	–	–	C[C@@H]1O[C@@H](OC[C@H]2O[C@@H](OCCc3ccc(O)c(O)c3)[C@H](O)[C@@H](OC(=O)/C=C/c3ccc(O)c(O)c3)[C@@H]2O)[C@H](O)[C@H](O)[C@H]1O [Forsythoside I]	–
-0.275	-0.769	–	–	23050.6	4555.69	13803.1	–	-0.522	–	–	–	COc1cc2ccc(=O)oc2c(O)c1O [Fraxetin]	–
0.561	-0.256	0.152	21554.2	33079.8	10028.5	–	–	–	–	–	–	COc1cc2ccc(=O)oc2c(O)c1OC [Fraxidin]	–
0.183	-0.668	–	–	–	–	17088	–	-0.243	28547.2	5628.78	–	COc1cc2ccc(=O)oc2c(O[C@@H]2O[C@H](CO)[C@@H](O)[C@H](O)[C@H]2O)c1O [Fraxin]	–
0.212	-0.203	–	19744.8	28893.6	10595.9	–	–	–	–	–	0.004	O=c1c(O)c(-c2ccccc2)oc2cc(O)cc(O)c12 [Galangin]	–
-0.442	-0.111	–	–	–	–	16310.3	–	-0.277	21043.4	11577.2	–	CC(C)=CCc1c(O)cc2oc3cc(O)c(O)c(CC=C(C)C)c3c(=O)c2c1O [Gamma-Mangostin]	–
0.816	0.967	–	29624.1	36150	23098.1	–	0.892	–	–	–	–	COc1ccc(-c2cc(=O)c3c(O)c(OC)c(OC)c(OC)c3o2)cc1 [Gardenin B]	–
0.361	0.231	0.296	22958.3	30681.6	15235.1	–	–	–	–	–	–	O=c1c(-c2ccc(O)cc2)coc2cc(O)cc(O)c12 [Genistein]	–
0.673	0.138	0.406	24334.9	34427	14242.8	–	–	–	–	–	–	O=c1c(-c2ccc(O)cc2)coc2cc(O[C@@H]3O[C@H](CO)[C@@H](O)[C@H](O)[C@H]3O)cc(O)c12 [Genistin]	–
1.231	0.655	–	30446.8	41129.3	19764.4	–	0.943	–	–	–	–	COc1cc(O)c2c(=O)cc(-c3ccc(O)cc3)oc2c1 [Genkwanin]	–
-2.121	-1.184	–	501.022	880.948	121.096	–	–	-1.653	–	–	–	O=C1O[C@H]2[C@@H]3OC(=O)c4cc(O)c(O)c(O)c4-c4c(cc(O)c(O)c4O)C(=O)OC[C@H]2O[C@@H](OC(=O)c2cc(O)c(O)c(O)c2)[C@@H]3OC(=O)c2cc(O)c(O)c3c2[C@@H]2C1=CC(=O)[C@](O)(O3)C2(O)O [Geraniin]	–
0.386	0.198	–	22931	30979.1	14882.8	–	–	–	–	–	–	CCCCCC/C=C\CCCCCCCCCc1cccc(O)c1C(=O)O [Ginkgolic acid C17:1]	0.292

Compound	Z repl 1	Z Repl 2	av Z [1]	av puncta (average of raw data 1 and 2)	raw data 1 (puncta)	raw data 2 (puncta)	av puncta [2]	av Z [3]	av Z [4]	raw data 1 (raw puncta)	raw data 2 (raw puncta)	av Z [5]	AvZ (average z score of seeding, SDs from the mean level of seeding)
C=CCc1ccc(O)c(OC)c1 [Eugenol]	-0.386	-0.861	–	–	21709.5	3574.2	12641.9	–	–	–	–	–	-0.624
COc1ccc(-c2cc(=O)c3c(O)c(OC)c(OC)cc3o2)cc1O [Eupatorin]	0.938	0.779	–	29352.8	37615.7	21089.9	–	0.859	–	–	–	–	–
COc1cc(/C=C/C(=O)[O-])ccc1O.[Na+] [Ferulic acid (sodium)]	-1.081	-0.257	–	–	13369.9	10022.5	11696.2	–	–	–	–	–	-0.669
COc1cc(/C=C/C(=O)O)ccc1O [Ferulic acid]	-0.555	-0.346	–	–	–	–	14374.8	–	–	19680.6	9068.99	–	-0.451
O.O=C(O)c1cc(O)c(O)c(O)c1 [Gallic acid (hydrate)]	-1.396	-1.097	–	5320.33	9587.18	1053.49	–	–	–	–	–	–	-1.246
O=C(O)c1cc(O)c(O)c(O)c1 [Gallic acid]	-2.072	-1.182	–	803.018	1468.86	137.18	–	–	–	–	–	–	-1.627
CC(C)=CCC/C(C)=C/Cc1c(O)c(CC=C(C)C)c2c(c1O)C(=O)C1=C[C@@H]3C[C@H]4C(C)(C)O[C@@](C/C=C(/C)C(=O)O)(C3=O)[C@@]14O2 [Gambogenic acid]	–	–	–	–	–	–	–	–	-1.587	–	–	–	–
CC(C)=CCC[C@]1(C)C=Cc2c(O)c3c(c(CC=C(C)C)c2O1)O[C@]12C(=C[C@@H]4C[C@H]1C(C)(C)O[C@@]2(C/C=C(/C)C(=O)O)C4=O)C3=O [Gambogic acid]	-2.192	-0.952	–	1315.22	33.834	2596.6	–	–	-1.572	–	–	–	-1.57
OCc1ccc(O[C@@H]2O[C@H](CO)[C@@H](O)[C@H](O)[C@H]2O)cc1 [Gastrodin]	-1.05	-0.621	–	9937.48	13738.4	6136.55	–	–	-0.836	–	–	–	–
